Patent US8895585B2, “Nicotinamide derivative or salt thereof” (FUJIFILM Corporation, priority 2010, dated 2014)
Where a name gives a salt, the structure may show the parent alone. Read-outs that look alike come from different tables or passages of the source.

Legend:
THP-1 cells = assay: TNFα generation assay; type: cell-based, human; conditions: Homo sapiens
Outline: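 Secreted TNFα in supernatant quantified by ELISA or AlphaLISA after 7 h culture on human IgG-coated wells (10 μg/ml coating). Cells were IFN-γ-differentiated THP-1 (10 ng/ml, 2 days), exposed to compound for 30 min at room temperature before plating.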

[1] = biological target: T1, glutathione S-transferase (GST)-fused full-length human Syk protein (Homo sapiens, UniProt P43405); assay: Syk enzyme assay; type: biochemical
T1 construct: (GST)-fused full-length human Syk protein; GST (glutathione S-transferase); purchased Carna Biosciences
Outline: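 GST-tagged full-length human Syk (baculovirus) preincubated with compound 15 min at room temperature (pH 7.0, 10 mM MgCl2), then reacted 40 min with 0.4 μM biotinylated peptide substrate and 27 μM ATP (final). Phosphorylation read by HTRF (615/665 nm) after EDTA stop; IC50 reported.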

[2] = THP-1, 7 h, IFN-γ-differentiated THP-1 cells on human IgG-coated plate, cultured 7 hours, read-out: TNFα generation inhibitory activity (IC50)
[3] = read-out: Syk-inhibitory activity (IC50)
[4] = THP-1, THP-1 cells, Table 22, read-out: IC50 in TNFα generation assay
[5] = Syk enzyme assay, Test Example 1, read-out: IC50 of Syk-inhibitory activity

IC50 (THP-1 cells; [2]) [nM]	IC50 [1, 3] [nM]	IC50 (THP-1 cells; [4]) [nM]	IC50 [1, 5] [nM]	SMILES
≤ 200	≤ 1000	–	–	Cc1cncc(Nc2nc(N[C@@H]3CCCC[C@@H]3N)c(Cl)cc2C(N)=O)c1 (relative stereo) [Example 34, 6-(cis-2-aminocyclohexylamino)-5-chloro-2-(5-methylpyridin-3-ylamino)nicotinamide•hydrochloride]
–	–	130 to 200	< 10	NC(=O)c1cc(F)c(N[C@@H]2CCCC[C@@H]2N)nc1Nc1cc(N)c2ncccc2c1 (relative stereo) [Example 41-1, 6-(cis-2-aminocyclohexylamino)-2-((8-aminoquinolin-6-yl)amino)-5-fluoronicotinamide]
–	–	130 to 200	< 10	CCS(=O)(=O)Nc1cccc2cc(Nc3nc(N[C@@H]4CCCC[C@@H]4N)c(F)cc3C(N)=O)cnc12 (relative stereo) [Example 41-12, 6-(cis-2-aminocyclohexylamino)-2-((8-(ethylsulphonamide)quinolin-3-yl)amino)-5-fluoronicotinamide]
≤ 200	≤ 1000	–	–	NC(=O)c1cc(F)c(N[C@@H]2CCCC[C@@H]2N)nc1Nc1cncc2ccccc12 (single isomer, unassigned) [Example 9, 6-(cis-2-aminocyclohexylamino)-5-fluoro-2-(isoquinolin-4-ylamino)nicotinamide•hydrochloride]
≤ 200	≤ 1000	–	–	COc1cc(Nc2nc(N[C@@H]3CCCC[C@@H]3N)c(F)cc2C(N)=O)cc(OC)c1 (single isomer, unassigned) [Example 21, 6-(cis-2-aminocyclohexylamino)-2-(3,5-dimethoxyphenylamino)-5-fluoronicotinamide]
–	–	65 to 130	10 to 50	COc1cc(Nc2nc(NC3CCCCC3N)c(F)cc2C(N)=O)cc(OC)c1OC (stereo not shown) [Example 002-007]
–	–	130 to 200	< 10	Cc1cc(Nc2nc(NC3CCCCC3N)c(F)cc2C(N)=O)cnc1C (stereo not shown) [Example 002-024]
–	–	65 to 130	< 10	NC(=O)c1cc(F)c(NC2CCCCC2N)nc1Nc1cccc2[nH]ncc12 (stereo not shown) [Example 002-025]
–	–	130 to 200	< 10	COCCn1ncc2c(Nc3nc(NC4CCCCC4N)c(F)cc3C(N)=O)cccc21 (stereo not shown) [Example 002-030]
–	–	130 to 200	< 10	NC(=O)c1cc(F)c(NC2CCCCC2N)nc1Nc1cccc2nn(CC3CC3)cc12 (stereo not shown) [Example 002-032]
–	–	130 to 200	< 10	NC(=O)c1cc(F)c(NC2CCCCC2N)nc1Nc1ccc2nn(Cc3ccccc3)cc2c1 (stereo not shown) [Example 002-037]
–	–	65 to 130	< 10	CCc1cncc(Nc2nc(NC3CCCCC3N)c(F)cc2C(N)=O)c1 (stereo not shown) [Example 002-038]
–	–	65 to 130	< 10	Cn1cc2cc(Nc3nc(NC4CCCCC4N)c(F)cc3C(N)=O)ccc2n1 (stereo not shown) [Example 002-041]
–	–	130 to 200	< 10	COCCn1ncc2ccc(Nc3nc(NC4CCCCC4N)c(F)cc3C(N)=O)cc21 (stereo not shown) [Example 002-048]
–	–	65 to 130	< 10	NC(=O)c1cc(F)c(NC2CCCCC2N)nc1Nc1ccnc(-c2ccco2)c1 (stereo not shown) [Example 002-053]
–	–	65 to 130	10 to 50	NC(=O)c1cc(F)c(NC2CCCCC2N)nc1Nc1ccnc(N2CCCC2=O)c1 (stereo not shown) [Example 002-054]
–	–	130 to 200	< 10	CC(C)Oc1cc(Nc2nc(NC3CCCCC3N)c(F)cc2C(N)=O)ccn1 (stereo not shown) [Example 002-055]
–	–	65 to 130	< 10	NC(=O)c1cc(F)c(NC2CCCCC2N)nc1Nc1ccnc(-c2ccoc2)c1 (stereo not shown) [Example 002-057]
–	–	65 to 130	< 10	CNc1cc(Nc2nc(NC3CCCCC3N)c(F)cc2C(N)=O)ccn1 (stereo not shown) [Example 002-058]

IC50 (THP-1 cells; [2]) [nM]	IC50 [1, 3] [nM]	IC50 (THP-1 cells; [4]) [nM]	IC50 [1, 5] [nM]	SMILES
–	–	130 to 200	10 to 50	CCNc1cc(Nc2nc(NC3CCCCC3N)c(F)cc2C(N)=O)ccn1 (stereo not shown) [Example 002-059]
–	–	65 to 130	< 10	CCOc1cc(Nc2nc(NC3CCCCC3N)c(F)cc2C(N)=O)ccn1 (stereo not shown) [Example 002-060]
–	–	130 to 200	< 10	COCCOc1cc(Nc2nc(NC3CCCCC3N)c(F)cc2C(N)=O)ccn1 (stereo not shown) [Example 002-066]
–	–	130 to 200	10 to 50	CNc1ccc(Nc2nc(NC3CCCCC3N)c(F)cc2C(N)=O)cn1 (stereo not shown) [Example 002-073]
–	–	130 to 200	< 10	COCCOc1ccc2cc(Nc3nc(NC4CCCCC4N)c(F)cc3C(N)=O)ccc2n1 (stereo not shown) [Example 002-097]
–	–	130 to 200	< 10	CCOCCOCCOc1ccc2cc(Nc3nc(NC4CCCCC4N)c(F)cc3C(N)=O)ccc2n1 (stereo not shown) [Example 002-100]
–	–	130 to 200	< 10	COCCOCCOc1ccc2cc(Nc3nc(NC4CCCCC4N)c(F)cc3C(N)=O)ccc2n1 (stereo not shown) [Example 002-110]
–	–	130 to 200	< 10	NC(=O)c1cc(F)c(NC2CCCCC2N)nc1Nc1ccc2nc(OCCN3CCCC3=O)ccc2c1 (stereo not shown) [Example 002-113]
–	–	< 65	< 10	NC(=O)c1cc(F)c(NC2CCCCC2N)nc1Nc1ccnc(-n2cncn2)c1 (stereo not shown) [Example 002-114]
–	–	130 to 200	10 to 50	Cn1c(=O)ccc2cc(Nc3nc(NC4CCCCC4N)c(F)cc3C(N)=O)cnc21 (stereo not shown) [Example 002-115]
–	–	65 to 130	< 10	Cc1ncc(Nc2nc(NC3CCCCC3N)c(F)cc2C(N)=O)cc1-c1ccoc1 (stereo not shown) [Example 002-117]
–	–	130 to 200	10 to 50	Cc1ncc(Nc2nc(NC3CCCCC3N)c(F)cc2C(N)=O)cc1C1CC1 (stereo not shown) [Example 002-118]
–	–	130 to 200	< 10	Cc1nc2ccc(Nc3nc(NC4CCCCC4N)c(F)cc3C(N)=O)cc2nc1C (stereo not shown) [Example 002-123]
–	–	65 to 130	< 10	CCn1ncc2cc(Nc3nc(NC4CCCCC4N)c(F)cc3C(N)=O)ccc21 (stereo not shown) [Example 002-125]
–	–	65 to 130	< 10	CCCn1ncc2cc(Nc3nc(NC4CCCCC4N)c(F)cc3C(N)=O)ccc21 (stereo not shown) [Example 002-126]
–	–	65 to 130	< 10	NC(=O)c1cc(F)c(NC2CCCCC2N)nc1Nc1ccnc(-c2ccccc2F)c1 (stereo not shown) [Example 002-131]
–	–	130 to 200	< 10	NC(=O)c1cc(F)c(NC2CCCCC2N)nc1Nc1cncc(-n2cncn2)c1 (stereo not shown) [Example 002-137]
–	–	65 to 130	< 10	COc1cccc(-c2cc(Nc3nc(NC4CCCCC4N)c(F)cc3C(N)=O)ccn2)c1F (stereo not shown) [Example 002-139]
–	–	130 to 200	< 10	COc1ccc(-c2cc(Nc3nc(NC4CCCCC4N)c(F)cc3C(N)=O)ccn2)c(F)c1 (stereo not shown) [Example 002-140]

IC50 (THP-1 cells; [2]) [nM]	IC50 [1, 3] [nM]	IC50 (THP-1 cells; [4]) [nM]	IC50 [1, 5] [nM]	SMILES
–	–	65 to 130	< 10	COc1ccc(F)c(-c2cc(Nc3nc(NC4CCCCC4N)c(F)cc3C(N)=O)ccn2)c1 (stereo not shown) [Example 002-141]
–	–	130 to 200	< 10	NC(=O)c1cc(F)c(NC2CCCCC2N)nc1Nc1ccc(C2CC2)nc1 (stereo not shown) [Example 002-142]
–	–	130 to 200	< 10	NC(=O)c1cc(F)c(NC2CCCCC2N)nc1Nc1ccnc(-c2cccc(F)c2F)c1 (stereo not shown) [Example 002-144]
–	–	65 to 130	10 to 50	COc1ncc(Nc2nc(NC3CCCCC3N)c(F)cc2C(N)=O)cc1-n1nccn1 (stereo not shown) [Example 002-155]
–	–	130 to 200	10 to 50	NC(=O)c1cc(F)c(NC2CCCCC2N)nc1Nc1ccc(-n2cccn2)nc1 (stereo not shown) [Example 002-160]
–	–	130 to 200	10 to 50	Cc1nccc(Nc2nc(NC3CCCCC3N)c(F)cc2C(N)=O)c1F (stereo not shown) [Example 002-163]
–	–	65 to 130	10 to 50	NC(=O)c1cc(F)c(NC2CCCCC2N)nc1Nc1ccnc(N2CCOCC2)c1F (stereo not shown) [Example 002-165]
–	–	130 to 200	10 to 50	NC(=O)c1cc(F)c(NC2CCCCC2N)nc1Nc1cnnc(-c2ccccc2)c1 (stereo not shown) [Example 002-169]
–	–	65 to 130	10 to 50	COc1ccc(-c2cncc(Nc3nc(NC4CCCCC4N)c(F)cc3C(N)=O)c2)cc1OC (stereo not shown) [Example 002-170]
–	–	130 to 200	10 to 50	NC(=O)c1cc(F)c(NC2CCCCC2N)nc1Nc1cncc(-c2ccc([N+](=O)[O-])cc2)c1 (stereo not shown) [Example 002-172]
–	–	130 to 200	10 to 50	N#Cc1ccc(-c2cncc(Nc3nc(NC4CCCCC4N)c(F)cc3C(N)=O)c2)cc1 (stereo not shown) [Example 002-173]
–	–	< 65	< 10	NC(=O)c1cc(F)c(NC2CCCCC2N)nc1Nc1cncc(-c2ccc3c(c2)OCO3)c1 (stereo not shown) [Example 002-175]
–	–	< 65	< 10	CCn1ncc2ccc(Nc3nc(NC4CCCCC4N)c(F)cc3C(N)=O)cc21 (stereo not shown) [Example 002-185]
–	–	65 to 130	< 10	CCn1ncc2c(Nc3nc(NC4CCCCC4N)c(F)cc3C(N)=O)cccc21 (stereo not shown) [Example 002-186]
–	–	< 65	< 10	NC(=O)c1cc(F)c(NC2CCCCC2N)nc1Nc1ccc2c(cnn2CC(F)F)c1 (stereo not shown) [Example 002-187]
–	–	65 to 130	< 10	NC(=O)c1cc(F)c(NC2CCCCC2N)nc1Nc1ccc2cnn(CC(F)F)c2c1 (stereo not shown) [Example 002-188]
–	–	65 to 130	< 10	NC(=O)c1cc(F)c(NC2CCCCC2N)nc1Nc1cncc(-c2ccc3cccnc3c2)c1 (stereo not shown) [Example 002-189]
–	–	130 to 200	< 10	NC(=O)c1cc(F)c(NC2CCCCC2N)nc1Nc1cncc(-c2ccc3cnccc3c2)c1 (stereo not shown) [Example 002-190]
